The test system of series [1] is Pancreatin from porcine pancreas. In words: In vitro incubation of MEDI7219 with pancreatin in PBS, LC-MS/MS metabolite identification and relative quantification. It is filed as in vitro ADME. Particulars: for Time at which fractional abundance peaked: pancreatin 3 mg/ml in PBS, 37 °C, sampling 0.5-6 h. Here is the method: MEDI7219 solution (10 µg/ml) was incubated with pancreatin (3 mg/ml) in pre-warmed PBS buffer at 37 °C for 0.5 h, 1 h, 2 h, 4 h and 6 h. A negative control sample was prepared as pancreatin in PBS buffer without MEDI7219 spiked in. A time zero sample was prepared as MEDI7219 in PBS without pancreatin. At each time point, 100 µl was sampled and quenched with 200 µl of acetonitrile. The quenched solution was centrifuged at 6000 g for 10 min. Supernatant was diluted 5-fold in mobile phase A (0.1 % formic acid in water) and 40 µl was injected to LC-MS/MS. Same LC-MS system was used here as structural characterization experiment. A longer LC gradient was applied where 20 % B was increased to 60 % B within 8 min.
For MS method, DDA (data dependent acquisition) experiment was used where ions in range of 800-1250 Da were selected for MS/MS. Same key settings for CID and EAD established in the structural characterization experiment described above were applied in MS method here.
Data were analyzed using Molecule Profiler beta version 1.3.2 (MP, SCIEX) beta version. Raw data from incubation at each time point was analyzed against the pancreatin blank sample in the MP software. […] Amino acid sequence for MEDI7219 was entered as a processing parameter. Non-natural amino acids including α-methyl-L-alanine, α-methyl-L-phenylalanine, α-methyl-L-serine, α-methyl-L-lysine, as well as side-chain lipid on lysine (C35H63N5O11) were added as custom elements by providing molecular formula in the software. Peptide method was used to match all peptide fragment peaks with full lipid side chain. Both MS1 and MS2 were used for peak finding based on mass tolerance of 15 ppm. For MS parameters, charge states 2-5 were included in the search. For MS/MS parameters, theoretical b, y, c’, z· as well as y|a and y|b internal fragment ions were searched with mass tolerance of 15 ppm. Default Biologics biotransformation set was used in the processing method. For quantification, all isotope peaks as part of a cluster and multiple charge states of the same peptide were summed for peak area. Results from individual timepoints were consolidated in Correlation analysis with 0.1 min retention time (RT) tolerance and 15 ppm m/z tolerance to yield the final list of metabolites and peak areas from all samples.
Pancreatin was chosen for the in vitro evaluation because the site of maximal gastrointestinal absorption for MEDI7219 oral peptide was small intestine and proximal colon ([Pechenov et al., 2021]). […]
For relative quantification, after correlation analysis in MP software and exporting XIC peak areas, we calculated fractional abundance of each metabolite over the incubation period (Figure 4). […]

For series [2] the following is noted: result in words; ref Pechenov et al., 2021; cited from earlier work. The source says:
Semaglutide was the first approved oral GLP-1 receptor agonist ([Mahapatra et al., 2022]) and it incorporated peptide engineering approaches such as unnatural amino acid substitution to protect proteolytic sites, and lipidation to promote plasma protein binding to reduce renal clearance.

The test system of another series is pancreatin. Particulars: result in words; ref Pechenov et al., 2021; cited from earlier work. From the text: Systematic multi-disciplinary approach to engineering led to rational selection of the clinical lead, MEDI7219, a GLP-1 peptide with bis-lipidation and 12 amino acid substitutions and 5 α- methyl modifications ([Pechenov et al., 2021]). […] This measurement was done using HPLC with MEDI7219 detection by UV absorption at 210 nm. In this study, we identified key metabolites from MEDI7219 ... || For relative quantification, after correlation analysis in MP software and exporting XIC peak areas, we calculated fractional abundance of each metabolite over the incubation period (Figure 4). This was taken as a percent of XIC peak area of each metabolite over total peak area of all metabolites at a given timepoint (Table S2). Parent peptide decreased quickly in this experiment compared to the 60 % remained intact after 2 h in previous publication ([Pechenov et al., 2021]). The enzyme to substrate ratio was higher in this study compared to Pechenov et al. as the assay condition was optimized ...

The values that follow come from doi:10.1101/2024.07.26.605352v1, “In-vitro Metabolite Identification for MEDI7219, an Oral GLP-1 Peptide, using LC-MS/MS with CID and EAD Fragmentation” (bioRxiv, 2024).

With “HαAEGSαFTSDVαSSsidechainKLEGEAAαKEαFIAsidechainK [Metabolite M2, metabolite of MEDI7219 identified after incubation with pancreatin]”, the “Time at which fractional abundance peaked” value in series [1] was determined as 0.5 h.
As for semaglutide, the “Degradation in GI tract” value in series [2] was “rapidly degraded in GI tract”.
For the substance “HαAEGSαFTSDVαSSsidechainKLEGEAAαKEαFIAsidechainK VVEGG [MEDI7219, orally-bioavailable GLP-1 peptide with bis-lipidation, 12 amino acid substitutions and 5 α-methyl modifications; clinical candidate]”, the “Proteolytic stability compared with wild type or semaglutide” value in the series on pancreatin is on record as “proteolytically more stable than the wild type or semaglutide”. The “Parent peptide in metabolite chromatograms over pancreatin incubation” value in series [1] (summed XIC chromatograms, 0-6 h, CID data, result in words) was “still present at 0.5 h although no longer the prominent species, and it decreased significantly after 2 h”. In addition, the “Number of distinct cleavage sites” value in series [1] (the 13 metabolites mapped on the MEDI7219 structure) was found to be 8.
Take “HαAEGSαFTSDVαSSsidechainK [Metabolite M13, metabolite of MEDI7219 identified after incubation with pancreatin]”: the “Time at which fractional abundance peaked” value in series [1] is 0.5 h.
